Results from patent publication US10517889B2, “Modulators of SMAD7 expression” (Ionis Pharmaceuticals, Inc., priority 2017, dated 2019).
Strand notation (5' to 3'): a small letter for the sugar, then the base; units joined by * are phosphorothioate-linked, units joined directly phosphodiester-linked; [ ] holds rarer units or linkages, { } end groups; capitals alone tell only the bases. k = constrained ethyl (cEt); [5mC] = 5-methylcytosine; d = 2'-deoxy (DNA)

Each substance was assayed on human SMAD7 mRNA (assay: Antisense inhibition of human SMAD7 mRNA expression in Hep3B cells by 3-10-3 cEt gapmers, 10,000 nM, electroporation (Example 2)). Conditions: Hep3B cells, 10,000 nM antisense oligonucleotide, electroporation, approximately 24 hours, RT-PCR primer probe set RTS5062, relative to untreated control cells.
Type: cell-based
How it was run: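 Percent inhibition of SMAD7 mRNA, relative to untreated cells, after ~24 h exposure of electroporated Hep3B cells to 10,000 nM cEt gapmer; levels by qRT-PCR, corrected for total RNA.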

Point of comparison: “798854 (kT*kA*k[5mC]*dA*d[5mC]*d[5mC]*d[5mC]*dA*d[5mC]*dA*d[5mC]*dA*d[5mC]*k[5mC]*kA*kT; antisense) [compound 798854]”, “% Inhibition” value 25%. Against it:
- 799891 (antisense kA*kT*k[5mC]*dA*dT*dT*dA*dA*dG*d[5mC]*d[5mC]*dA*dA*kT*kT*kT) [compound 799891] — lower, 0%
- 799880 (kT*k[5mC]*k[5mC]*dG*dA*dT*dG*dG*dA*dA*dA*dA*dG*k[5mC]*kT*k[5mC]; antisense) [compound 799880] — higher, 39%
- 799856 (kG*k[5mC]*kA*dA*dG*d[5mC]*d[5mC]*dA*dA*dG*dT*dG*dT*k[5mC]*k[5mC]*kA; antisense) [compound 799856] — higher, 43%

Same assay, conditions: Hep3B cells, electroporation with 10,000 nM antisense oligonucleotide, approximately 24 hours, RTS5062, percent inhibition of SMAD7 mRNA relative to untreated control cells

Point of comparison: “799742 (antisense kA*kT*kA*dT*dT*dT*d[5mC]*d[5mC]*dT*dG*dT*dT*dA*kA*k[5mC]*kT) [compound 799742]”, “% Inhibition” value 23%. Against it:
- 799825 (antisense kG*kA*k[5mC]*dT*dT*dG*dG*d[5mC]*dA*dG*d[5mC]*d[5mC]*dA*kA*kG*k[5mC]) [compound 799825] — lower, 0%
- 799769 (k[5mC]*k[5mC]*kA*d[5mC]*d[5mC]*dA*dA*d[5mC]*d[5mC]*dT*d[5mC]*dT*dG*kT*kG*kG; antisense) [compound 799769] — lower, 0%
- 799313 (antisense kA*kT*k[5mC]*d[5mC]*dA*dT*d[5mC]*dT*dT*dT*dA*dA*dG*k[5mC]*kA*k[5mC]) [compound 799313] — lower, 0%
- 799610 (kG*kG*kG*dA*dG*dA*dA*dA*d[5mC]*dT*d[5mC]*d[5mC]*dT*k[5mC]*kA*kG; antisense) [compound 799610] — higher, 45%
- 799685 (antisense kG*kA*kT*dT*dT*dT*dA*dA*dA*dT*dG*d[5mC]*dT*kG*kT*k[5mC]) [compound 799685] — higher, 25%
- 799569 (k[5mC]*kT*k[5mC]*dT*dA*dG*dG*dT*d[5mC]*d[5mC]*d[5mC]*dT*d[5mC]*kT*kT*kT; antisense) [compound 799569] — higher, 24%

Same assay, conditions: Hep3B cells, electroporation with 10,000 nM antisense oligonucleotide, approximately 24 hours, SMAD7 mRNA by RT-PCR (RTS5062), relative to untreated control cells

Point of comparison: “799415 (antisense kG*k[5mC]*k[5mC]*dA*d[5mC]*dA*dG*d[5mC]*dA*dG*d[5mC]*dT*dG*kG*k[5mC]*kA) [compound 799415]”, “% Inhibition” value 0%. Against it:
- 790465 (kA*kA*kG*dG*dA*dG*d[5mC]*dG*dA*dA*d[5mC]*dA*dT*kG*kA*k[5mC]; antisense) [compound 790465] — higher, 54%
- 830186 (antisense kA*kG*kG*dT*d[5mC]*d[5mC]*dA*dG*dG*dG*dT*d[5mC]*d[5mC]*kT*k[5mC]*k[5mC]) [compound 830186] — higher, 50%
- 799356 (kG*kA*kA*dA*dA*dA*dT*dT*d[5mC]*dA*d[5mC]*d[5mC]*dA*kA*kA*k[5mC]; antisense) [compound 799356] — higher, 23%
- 830191 (antisense k[5mC]*kT*kA*dA*dT*d[5mC]*dA*dG*dA*dT*dG*d[5mC]*d[5mC]*kT*kG*k[5mC]) [compound 830191] — higher, 47%
- 799391 (antisense k[5mC]*kG*k[5mC]*d[5mC]*d[5mC]*d[5mC]*dA*dG*d[5mC]*dA*dA*dA*dA*k[5mC]*kT*kT) [compound 799391] — the same, 0%
- 798834 (kA*kA*kA*dA*dG*d[5mC]*d[5mC]*dA*dT*dT*d[5mC]*d[5mC]*d[5mC]*k[5mC]*kT*kG; antisense) [compound 798834] — higher, 55%
- 830059 (kG*kG*kG*d[5mC]*d[5mC]*dA*d[5mC]*d[5mC]*d[5mC]*dA*dG*dT*dG*kA*kG*k[5mC]; antisense) [compound 830059] — higher, 22%
- 799984 (kA*k[5mC]*kA*dT*d[5mC]*dA*d[5mC]*d[5mC]*dA*d[5mC]*dG*d[5mC]*d[5mC]*kT*k[5mC]*kG; antisense) [compound 799984] — higher, 61%
- 799924 (antisense k[5mC]*kA*kA*dG*d[5mC]*d[5mC]*dT*dA*d[5mC]*dA*dT*dA*dT*kT*kT*k[5mC]) [compound 799924] — higher, 22%
- 798923 (kT*kT*kG*dA*dA*dG*dT*dG*dT*dG*dG*d[5mC]*d[5mC]*kT*kG*k[5mC]; antisense) [compound 798923] — higher, 54%
- 798833 (kT*kA*kG*dA*dT*d[5mC]*dA*dT*dA*dG*dA*dA*dG*kA*kT*kA; antisense) [compound 798833] — higher, 48%
- 798769 (k[5mC]*k[5mC]*kT*dG*dA*dG*dA*dT*d[5mC]*d[5mC]*dG*dG*d[5mC]*k[5mC]*kA*k[5mC]; antisense) [compound 798769] — higher, 58%

Same assay, conditions: Hep3B cells, electroporation with 10,000 nM antisense oligonucleotide, approximately 24 hours, primer probe set RTS5062, relative to untreated control cells

Point of comparison: “799048 (antisense kT*k[5mC]*k[5mC]*dT*dT*dG*dA*dT*dG*dA*dG*dG*dG*kA*kG*kA) [compound 799048]”, “% inhibition of SMAD7 mRNA expression” value 60%. Against it:
- 772543 (antisense kG*kG*kA*d[5mC]*dG*dA*dG*d[5mC]*dG*d[5mC]*dA*dG*dA*kT*k[5mC]*kG) [compound 772543] — lower, 58%
- 798743 (antisense kT*kG*k[5mC]*d[5mC]*dG*d[5mC]*dT*d[5mC]*d[5mC]*dT*dT*d[5mC]*dA*kG*kT*kT) [compound 798743] — lower, 19%
- 799264 (antisense k[5mC]*k[5mC]*kA*dT*d[5mC]*d[5mC]*dA*dA*d[5mC]*dT*d[5mC]*dT*d[5mC]*kT*kT*kT) [compound 799264] — lower, 16%
- 799148 (antisense kT*kG*kG*dT*dA*d[5mC]*d[5mC]*dT*dT*dG*dG*dG*dT*kT*kA*kT) [compound 799148] — lower, 29%
- 799325 (antisense kT*k[5mC]*kT*d[5mC]*d[5mC]*d[5mC]*dA*dG*dG*dA*dG*dG*dG*kT*kA*kT) [compound 799325] — lower, 2%
- 798774 (kT*kT*kG*dA*d[5mC]*dT*dT*d[5mC]*d[5mC]*dG*dA*dG*dG*kA*kA*kT; antisense) [compound 798774] — lower, 12%
- 799029 (kG*kG*kA*dG*dA*dG*dA*d[5mC]*dA*d[5mC]*d[5mC]*dG*d[5mC]*kT*kT*kG; antisense) [compound 799029] — lower, 0%

Point of comparison: “799018 (k[5mC]*kT*kG*d[5mC]*dA*dA*dA*d[5mC]*d[5mC]*dT*d[5mC]*dT*d[5mC]*kT*kG*k[5mC]; antisense) [compound 799018]”, “% Inhibition” value 29%. Against it:
- 799209 (kT*kA*kA*dT*dG*dA*dT*dG*d[5mC]*dT*dT*dA*dT*kA*kA*kA; antisense) [compound 799209] — lower, 14%
- 798935 (antisense kA*kA*kA*dG*d[5mC]*dA*dA*dG*d[5mC]*dA*d[5mC]*dT*d[5mC]*kA*kG*kG) [compound 798935] — higher, 48%
- 799078 (antisense kA*kT*k[5mC]*d[5mC]*dA*dG*dG*dA*dG*d[5mC]*dA*dG*dA*kT*kG*kG) [compound 799078] — lower, 19%
- 799015 (kG*kG*kG*dA*d[5mC]*dA*dT*d[5mC]*d[5mC]*dA*dT*dA*dA*kG*kA*kG; antisense) [compound 799015] — lower, 25%
- 799175 (antisense kT*kA*kA*dA*dG*dT*d[5mC]*dT*dA*dA*dA*d[5mC]*dA*kT*kG*k[5mC]) [compound 799175] — lower, 0%

Same assay, conditions: Hep3B cells, electroporation, 10,000 nM antisense oligonucleotide, approximately 24 hours, RTS5062, relative to untreated control cells

Point of comparison: “799661 (antisense k[5mC]*kT*k[5mC]*d[5mC]*dA*d[5mC]*dT*dG*d[5mC]*d[5mC]*dT*d[5mC]*d[5mC]*kT*kA*k[5mC]) [compound 799661]”, “% inhibition of SMAD7 mRNA expression” value 44%. Against it:
- 799542 (kG*kT*kT*dA*dA*dT*dG*dA*d[5mC]*dA*d[5mC]*d[5mC]*dA*kA*kA*kG; antisense) [compound 799542] — lower, 30%
- 799696 (antisense kA*kA*kG*dT*dT*dA*dT*d[5mC]*dT*dG*dG*dG*dA*kA*kG*k[5mC]) [compound 799696] — lower, 43%

Same assay, conditions: SMAD7 mRNA, Hep3B cells, 10,000 nM antisense oligonucleotide, electroporation, approximately 24 hours, primer probe set RTS5062, relative to untreated control cells

Point of comparison: “772589 (kA*k[5mC]*k[5mC]*dG*dA*dT*d[5mC]*d[5mC]*d[5mC]*d[5mC]*dA*dG*dG*k[5mC]*kT*k[5mC]; antisense) [compound 772589]”, “% Inhibition” value 9%. Against it:
- 790609 (kG*kT*k[5mC]*dT*dA*dA*dA*d[5mC]*dA*dT*dG*d[5mC]*dT*k[5mC]*kA*kT; antisense) [compound 790609] — higher, 40%
- 800771 (antisense k[5mC]*k[5mC]*k[5mC]*dG*d[5mC]*dA*dG*d[5mC]*dT*d[5mC]*dG*d[5mC]*d[5mC]*kT*k[5mC]*k[5mC]) [compound 800771] — higher, 46%
- 829780 (antisense k[5mC]*kG*kG*d[5mC]*d[5mC]*dA*d[5mC]*d[5mC]*dT*dG*dA*dA*d[5mC]*kA*k[5mC]*kT) [compound 829780] — higher, 37%
- 800795 (antisense kT*kA*kA*d[5mC]*dT*dG*d[5mC]*dT*dG*d[5mC]*dG*dG*dT*kT*kG*kT) [compound 800795] — higher, 12%

Same assay, conditions: SMAD7 mRNA, Hep3B cells, electroporation with 10,000 nM antisense oligonucleotide, approximately 24 hours, primer probe set RTS5062, relative to untreated control cells

Point of comparison: “829853 (antisense kA*k[5mC]*kT*d[5mC]*dT*dT*dG*dT*dT*dG*dT*d[5mC]*d[5mC]*kG*kA*kA) [compound 829853]”, “% Inhibition” value 42%. Against it:
- 829966 (kT*kT*k[5mC]*d[5mC]*d[5mC]*dA*dG*dG*dA*dG*dG*dG*dT*kA*kT*kG; antisense) [compound 829966] — lower, 0%
- 829836 (k[5mC]*k[5mC]*kA*dG*dT*dG*dT*dG*dA*d[5mC]*d[5mC]*dG*dA*kT*k[5mC]*k[5mC]; antisense) [compound 829836] — higher, 48%
